Results taken from patent US20160264593A1 (priority 2013, published 2016).
Where two headings read alike, the source gives them in different places.

Assay: Pharmacokinetic study of 153 (and metabolite endothal) in SD rats, iv and po; plasma, liver, brain
Assay type: in vivo
Conditions: for 153 plasma concentration (title) / Liver concentration: PO per title; for MRT last: read-out: MRT (0-t)
Description: The blood, liver and brain tissue samples were collected at predetermined times from rats. […] Compound were diluted shortly before use in 4% sodium bicarbonate for sterile injection (this is the standard pediatric solution of NaHCO3 with a pH of about 8.5).
Compound 153 was freshly prepared by diluting the drugs shortly before use in 4% sodium bicarbonate for sterile injection (this is the standard pediatric solution of NaHCO3 with a pH of about 8.5). The final concentrations of 153 solutions were 0.25 mg/mL. The 153 solutions were administered via iv or po route at dose volume of 5 ml/kg according to the latest body weight. Compound 157 was freshly prepared by diluting the drugs shortly before use in 4% sodium bicarbonate for sterile injection (this is the standard pediatric solution of NaHCO3 with a pH of about 8.5). The final concentrations of […] solutions were 0.3 mg/mL. The 157 solutions were administered via iv or po route at dose volume of 5 ml/kg according to the latest body weight.
Twelve (12) female SD rats per group were dosed by iv with 153 or 157. The rats were fasted overnight prior to dosing, with free access to water. Foods were withheld for 2 hours post-dose. Blood, liver and brain tissue samples in two animals each group were collected at each time point, within 10% of the scheduled time for each time point. Two extra animals were used for analytic method development.
Blood (>0.3 mL) were collected via aorta abdominalis in anaesthetic animals into tubes containing heparin at 15 min, 1, 2, 6, 10 and 24 hours after iv administration. Liver and brain tissues were collected immediately after animal death. The liver and brain tissues were excised and rinsed with cold saline to avoid blood residual. Upon collection, each sample was placed on ice and the blood samples were subsequently centrifuged (4° C., 11000 rpm, 5 min) to separate plasma. The obtained plasma, liver and brain tissue samples were stored at −70° C. until LC-MS/MS analysis.
Two (2) female SD rats per group were dosed by po with 153 or 157. The rats were fasted overnight prior to dosing, with free access to water. Foods were withheld for 2 hours post-dose. Blood samples (>0.3 mL) were collected via aorta abdominalis in anaesthetic animals into tubes containing heparin at 30 min, 1, 2, 6, 10 and 24 hours after po administration.
To each sample, 20 μL IS-D (for blank samples, 20 μL acetonitrile:water (1:1) was added) and 300 μl acetonitrile was added. The sample mixture was vortexed for approximately 3 min. After centrifugation at 10000 rpm for 5 min at 4° C., 100 μL of the upper layer was transferred to a new tube and added 200 μL 0.4% formic acid in water (pH 6.0). The mixture was vortexed for approximately 3 min before injected onto the LC/MS/MS system for analysis.
On the day of the assay, the frozen liver and brain samples were thawed unassisted at room temperature. An about 200 mg weighed sample of each thawed tissue was placed into a plastic tube with water (0.6 mL) to facilitate homogenization. Tissue processing was conducted using a homogenizer for approximately 1 min, 200 μl homogenate was transferred into a fresh Eppendorf tube. To each tube, 50 μL IS-D was added and mixed. Then 600 μl acetonitrile was added and the sample mixture was vortexed for approximately 3 min. After centrifugation at 10000 rpm for 5 min at 4° C., 400 μL of the upper layer was transferred to a new tube and evaporate the supernatant to dryness at 35° C. Reconstitute the residue with 200 μL of 0.4% formic acid in water (pH6.0), and vortex for 3 min, submit for LC-MS/MS analysis.
Frozen unknown plasma samples were completely thawed at room temperature and vortexed thoroughly. With a pipette, 50 μL of plasma was transferred into a 2.0 mL Eppendorf tube. 50 μL of 0.1N HCl and 800 μL ethyl acetate were added into each sample. The sample mixture was vortexed for approximately 3 min.

[1] = female, SD, rat, in vivo, iv, 1.25 mg/kg, 153 in plasma, IV 1.25 mg/kg, Mean
[2] = female, SD, rat, in vivo, iv, 1.25 mg/kg, 153 in plasma, IV 1.25 mg/kg, rat 1
[3] = female, SD, rat, in vivo, iv, 1.25 mg/kg, 153 in plasma, IV 1.25 mg/kg, rat 2

CCCOC(=O)C1C2CCC(O2)C1C(=O)N1CCN(C)CC1 (stereo not drawn) [Compound 153, 3-(4-Methylpiperazine-1-carbonyl)-7-oxa-bicyclo[2,2,1]heptane-2-carboxylic acid propyl ester]
F (153, PO 1.25 mg/kg vs IV 1.25 mg/kg, Mean): 55.41% | conversion to endothal in the plasma (statement) (153 administered to rats): converted to endothal | Tmax (153 in plasma, IV 1.25 mg/kg, Mean): 15 min | Tmax (153 in plasma, IV 1.25 mg/kg, rat 2): 15 min | Tmax (153 in plasma, PO 1.25 mg/kg, rat 2): 30 min | AUClast of 153 in brain (153 iv 1.25 mg/kg): 39.4 ng·h/g | AUClast of 153 in liver (153 iv 1.25 mg/kg): 500 ng·h/g | oral availability of 153 (statement) (153 po 1.25 mg/kg): orally available | AUC (Brain, 1.25 mg/kg IV, Mean): 39.4 ng·h/mL | AUC0-∞ (Brain, 1.25 mg/kg IV, Mean): 39.35 ng·h/mL | Tmax (Brain, 1.25 mg/kg IV, Mean): 15 min | AUC (Brain, 1.25 mg/kg IV, rat 1): 39.2 ng·h/mL | AUC0-∞ (Brain, 1.25 mg/kg IV, rat 1): 39.2 ng·h/mL | Tmax (Brain, 1.25 mg/kg IV, rat 1): 15 min | AUC (Brain, 1.25 mg/kg IV, rat 2): 39.5 ng·h/mL | AUC0-∞ (Brain, 1.25 mg/kg IV, rat 2): 39.5 ng·h/mL | Tmax (Brain, 1.25 mg/kg IV, rat 2): 15 min | AUC (Liver, 1.25 mg/kg IV, Mean): 500 ng·h/mL | AUC0-∞ (Liver, 1.25 mg/kg IV, Mean): 500 ng·h/mL | AUC (Liver, 1.25 mg/kg IV, rat 1): 547 ng·h/mL | AUC0-∞ (Liver, 1.25 mg/kg IV, rat 1): 547 ng·h/mL | Tmax (Liver, 1.25 mg/kg IV, rat 1): 15 min | AUC (Liver, 1.25 mg/kg IV, rat 2): 453 ng·h/mL | AUC0-∞ (Liver, 1.25 mg/kg IV, rat 2): 453 ng·h/mL | Tmax (Liver, 1.25 mg/kg IV, rat 2): 15 min | 153 plasma concentration (title) / Liver concentration (1.25 mg/kg, 6 hr, Rat 1): BLQ | 153 plasma concentration (title) / Liver concentration (1.25 mg/kg, 6 hr, Rat 2): BLQ | 153 plasma concentration (title) / Liver concentration (1.25 mg/kg, 10 hr, Rat 1): BLQ | Tmax (female, SD, in vivo, 153 in plasma, IV 1.25 mg/kg, rat 1, read-out: Tmax): 15 min | Tmax (female, SD, in vivo, 153 in plasma, PO 1.25 mg/kg, rat 1, read-out: Tmax): 30 min | AUC(0-inf) [1]: 296 ng·h/mL | AUC (female, SD, rat, in vivo, iv, 1.25 mg/kg, 153 in plasma, IV 1.25 mg/kg, Mean, read-out: AUC): 295 ng·h/mL | Cmax (female, SD, rat, in vivo, iv, 1.25 mg/kg, 153 in plasma, IV 1.25 mg/kg, Mean, read-out: Cmax): 557 ng/mL | MRT last [1]: 39.4 min | half-life (female, SD, rat, in vivo, iv, 1.25 mg/kg, 153 in plasma, IV 1.25 mg/kg, Mean, read-out: T1/2 (converted)): 55.3 min | AUC(0-inf) [2]: 303 ng·h/mL | AUC (female, SD, rat, in vivo, iv, 1.25 mg/kg, 153 in plasma, IV 1.25 mg/kg, rat 1, read-out: AUC): 303 ng·h/mL | Cmax (female, SD, rat, in vivo, iv, 1.25 mg/kg, 153 in plasma, IV 1.25 mg/kg, rat 1, read-out: Cmax): 563 ng/mL | MRT last [2]: 40 min | half-life (female, SD, rat, in vivo, iv, 1.25 mg/kg, 153 in plasma, IV 1.25 mg/kg, rat 1, read-out: T1/2 (converted)): 54.4 min | AUC(0-inf) [3]: 288 ng·h/mL | AUC (female, SD, rat, in vivo, iv, 1.25 mg/kg, 153 in plasma, IV 1.25 mg/kg, rat 2, read-out: AUC): 288 ng·h/mL | Cmax (female, SD, rat, in vivo, iv, 1.25 mg/kg, 153 in plasma, IV 1.25 mg/kg, rat 2, read-out: Cmax): 550 ng/mL | MRT last [3]: 38.8 min | half-life (female, SD, rat, in vivo, iv, 1.25 mg/kg, 153 in plasma, IV 1.25 mg/kg, rat 2, read-out: T1/2 (converted)): 56 min | half-life (female, SD, rat, in vivo, iv, 1.25 mg/kg, 153 iv 1.25 mg/kg, read-out: T1/2 of 153 in brain (converted)): 35.8 min | half-life (female, SD, rat, in vivo, iv, 1.25 mg/kg, 153 iv 1.25 mg/kg, read-out: T1/2 of 153 in liver (converted)): 37.6 min | half-life (female, SD, rat, in vivo, iv, 1.25 mg/kg, 153 iv 1.25 mg/kg, read-out: T1/2 of 153 in plasma (converted)): 55.3 min | Cmax (female, SD, rat, in vivo, iv, 1.25 mg/kg, 153 iv 1.25 mg/kg, read-out: mean Cmax of 153 in brain): 42.7 ng/g | Cmax (female, SD, rat, in vivo, iv, 1.25 mg/kg, 153 iv 1.25 mg/kg, read-out: mean Cmax of 153 in liver): 762 ng/g | Cmax (female, SD, rat, in vivo, iv, 1.25 mg/kg, 153 iv 1.25 mg/kg, read-out: mean Cmax of 153 in plasma): 557 ng/mL | Cmax (female, SD, rat, in vivo, iv, 1.25 mg/kg, Liver, 1.25 mg/kg IV, rat 1, read-out: Cmax): 872 ng/g | MRT last (female, SD, rat, in vivo, iv, 1.25 mg/kg, Liver, 1.25 mg/kg IV, rat 1): 44.7 min | half-life (female, SD, rat, in vivo, iv, 1.25 mg/kg, Liver, 1.25 mg/kg IV, rat 1, read-out: T1/2 (converted)): 36.5 min | Cmax (female, SD, rat, in vivo, iv, 1.25 mg/kg, Liver, 1.25 mg/kg IV, rat 2, read-out: Cmax): 652 ng/g | MRT last (female, SD, rat, in vivo, iv, 1.25 mg/kg, Liver, 1.25 mg/kg IV, rat 2): 49.5 min | concentration at 0.25 h (female, SD, rat, in vivo, iv, 1.25 mg/kg, iv 1.25 mg/kg, Mean, read-out: 153 brain concentration): 42.7 ng/g | concentration at 0.25 h (female, SD, rat, in vivo, iv, 1.25 mg/kg, iv 1.25 mg/kg, Mean, read-out: 153 liver concentration): 762 ng/g | concentration at 0.25 h (female, SD, rat, in vivo, iv, 1.25 mg/kg, iv 1.25 mg/kg, Mean, read-out: 153 plasma concentration): 557 ng/mL | concentration at 0.25 h (female, SD, rat, in vivo, iv, 1.25 mg/kg, iv 1.25 mg/kg, Rat 1, read-out: 153 brain concentration): 45 ng/g | concentration at 0.25 h (female, SD, rat, in vivo, iv, 1.25 mg/kg, iv 1.25 mg/kg, Rat 1, read-out: 153 liver concentration): 872 ng/g | concentration at 0.25 h (female, SD, rat, in vivo, iv, 1.25 mg/kg, iv 1.25 mg/kg, Rat 1, read-out: 153 plasma concentration): 563 ng/mL | concentration at 0.25 h (female, SD, rat, in vivo, iv, 1.25 mg/kg, iv 1.25 mg/kg, Rat 2, read-out: 153 brain concentration): 40.3 ng/g | concentration at 0.25 h (female, SD, rat, in vivo, iv, 1.25 mg/kg, iv 1.25 mg/kg, Rat 2, read-out: 153 liver concentration): 652 ng/g | concentration at 0.25 h (female, SD, rat, in vivo, iv, 1.25 mg/kg, iv 1.25 mg/kg, Rat 2, read-out: 153 plasma concentration): 550 ng/mL | concentration at 1 h (female, SD, rat, in vivo, iv, 1.25 mg/kg, iv 1.25 mg/kg, 1 hr, Mean, read-out: 153 brain concentration): 14.1 ng/g
